Results taken from ChEMBL document CHEMBL1201862, “PubChem BioAssay data set” (2004).
Where “and” joins values, the source holds several entries; their conditions need not be identical. Equal values may be shown once.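 Protocol summary: plate cells (96-well), add compound at 5 concentrations, incubate 48 h, interpolate endpoints linearly. Abbreviation: GI50, concentration required for 50% inhibition of growth.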 Calls of active or inactive are those of the source. Cut-off read from the data, not from the text of the source: active = GI50 up to about 1.1 µM and inactive = higher.

Tests used:
Test in all cases: NCI tumour cell line growth inhibition, 48 h
UO-31 = system: UO-31
MCF7 = system: MCF7
OVCAR-8 = system: OVCAR-8
HL-60 = system: HL-60
HCT-116 = system: HCT-116
SR = system: SR
K562 = system: K562
T47D = system: T47D
NCI/ADR-RES = system: NCI/ADR-RES
786-0 = system: 786-0
OVCAR-5 = system: OVCAR-5
UACC-257 = system: UACC-257
EKVX = system: EKVX
CCRF-CEM = system: CCRF-CEM
TK-10 = system: TK-10
A549 = system: A549
RPMI-8226 = system: RPMI-8226
OVCAR-3 = system: OVCAR-3
MOLT-4 = system: MOLT-4
HCC 2998 = system: HCC 2998
SNB-75 = system: SNB-75
SK-MEL-2 = system: SK-MEL-2
SF-295 = system: SF-295
CAKI-1 = system: CAKI-1
UACC-62 = system: UACC-62
Malme-3M = system: Malme-3M
PC-3 = system: PC-3
SF-539 = system: SF-539
HOP-62 = system: HOP-62
MDA-MB-231 = system: MDA-MB-231
HT-29 = system: HT-29
U-251 = system: U-251
NCI-H23 = system: NCI-H23
MDA-N = system: MDA-N
SK-MEL-28 = system: SK-MEL-28
HOP-92 = system: HOP-92
NCI-H226 = system: NCI-H226
KM12 = system: KM12
OVCAR-4 = system: OVCAR-4
HCT-15 = system: HCT-15
SF-268 = system: SF-268
ACHN = system: ACHN
DU-145 = system: DU-145
NCI-H460 = system: NCI-H460
Hs-578T = system: Hs-578T
SN12C = system: SN12C
COLO 205 = system: COLO 205
M14 = system: M14
SK-OV-3 = system: SK-OV-3
SK-MEL-5 = system: SK-MEL-5
LOX IMVI = system: LOX IMVI
SW-620 = system: SW-620
IGROV-1 = system: IGROV-1
MDA-MB-435 = system: MDA-MB-435
NCI-H522 = system: NCI-H522
A498 = system: A498
RXF 393 = system: RXF 393
SNB-19 = system: SNB-19

Question: Which results are given for CC(=O)c1ccc(NC(=O)CSc2nc(C)nc3c2sc(=S)n3-c2ccccc2)cc1?
Answer: GI50 (UO-31): 9.42 µM (inactive); GI50 (MCF7): > 10 µM (inactive); GI50 (OVCAR-8): > 10 µM (inactive); GI50 (HL-60): 2.99 µM (inactive); GI50 (HCT-116): 3 µM (inactive); GI50 (SR): 2.2 µM (inactive); GI50 (K562): > 10 µM (inactive)

Question: How did the GI50 (T47D) turn out when CC1(C)CC2C(C1=O)C1(C)CCCC2(C)C1=O (configuration not stated) was run?
Answer: > 100 µM (inactive)

Question: And the GI50 (NCI/ADR-RES)?
Answer: > 100 µM (inactive)

Question: What about the GI50 (786-0) of the same molecule?
Answer: > 100 µM (inactive)

Question: What about the GI50 (OVCAR-5) of the same molecule?
Answer: > 100 µM (inactive)

Question: And the GI50 (UACC-257)?
Answer: > 100 µM (inactive)

Question: And the GI50 (EKVX)?
Answer: > 100 µM (inactive)

Question: And the GI50 (CCRF-CEM)?
Answer: > 100 µM (inactive)

Question: And the GI50 (TK-10)?
Answer: > 100 µM (inactive)

Question: And the GI50 (A549)?
Answer: > 100 µM (inactive)

Question: And the GI50 (RPMI-8226)?
Answer: > 100 µM (inactive)

Question: And the GI50 (OVCAR-3)?
Answer: > 100 µM (inactive)

Question: And the GI50 (MOLT-4)?
Answer: > 100 µM (inactive)

Question: And the GI50 (HCC 2998)?
Answer: > 100 µM (inactive)

Question: And the GI50 (SNB-75)?
Answer: > 100 µM (inactive)

Question: What about the GI50 (UO-31) of the same molecule?
Answer: > 100 µM (inactive)

Question: What about the GI50 (SK-MEL-2) of the same molecule?
Answer: > 100 µM (inactive)

Question: What about the GI50 (SF-295) of the same molecule?
Answer: > 100 µM (inactive)

Question: And the GI50 (CAKI-1)?
Answer: > 100 µM (inactive)

Question: And the GI50 (UACC-62)?
Answer: > 100 µM (inactive)

Question: And the GI50 (Malme-3M)?
Answer: > 100 µM (inactive)

Question: And the GI50 (PC-3)?
Answer: > 100 µM (inactive)

Question: What about the GI50 (SF-539) of the same molecule?
Answer: > 100 µM (inactive)

Question: And the GI50 (HOP-62)?
Answer: > 100 µM (inactive)

Question: And the GI50 (MDA-MB-231)?
Answer: > 100 µM (inactive)

Question: What about the GI50 (HT-29) of the same molecule?
Answer: > 100 µM (inactive)

Question: And the GI50 (U-251)?
Answer: > 100 µM (inactive)

Question: What about the GI50 (NCI-H23) of the same molecule?
Answer: > 100 µM (inactive)

Question: What about the GI50 (MDA-N) of the same molecule?
Answer: > 100 µM (inactive)

Question: What about the GI50 (MCF7) of the same molecule?
Answer: > 100 µM (inactive)

Question: What about the GI50 (SK-MEL-28) of the same molecule?
Answer: > 100 µM (inactive)

Question: And the GI50 (HOP-92)?
Answer: > 100 µM (inactive)

Question: And the GI50 (OVCAR-8)?
Answer: > 100 µM (inactive)

Question: And the GI50 (NCI-H226)?
Answer: > 100 µM (inactive)

Question: What about the GI50 (KM12) of the same molecule?
Answer: > 100 µM (inactive)

Question: And the GI50 (OVCAR-4)?
Answer: > 100 µM (inactive)

Question: What about the GI50 (HL-60) of the same molecule?
Answer: > 100 µM (inactive)

Question: What about the GI50 (HCT-15) of the same molecule?
Answer: > 100 µM

Question: And the GI50 (HCT-116)?
Answer: > 100 µM (inactive)

Question: And the GI50 (SF-268)?
Answer: > 100 µM (inactive)

Question: What about the GI50 (ACHN) of the same molecule?
Answer: > 100 µM (inactive)

Question: And the GI50 (DU-145)?
Answer: > 100 µM (inactive)

Question: What about the GI50 (NCI-H460) of the same molecule?
Answer: > 100 µM (inactive)

Question: What about the GI50 (Hs-578T) of the same molecule?
Answer: > 100 µM (inactive)

Question: And the GI50 (SN12C)?
Answer: > 100 µM (inactive)

Question: What about the GI50 (COLO 205) of the same molecule?
Answer: > 100 µM (inactive)

Question: And the GI50 (M14)?
Answer: > 100 µM (inactive)

Question: What about the GI50 (SK-OV-3) of the same molecule?
Answer: > 100 µM (inactive)

Question: And the GI50 (SR)?
Answer: > 100 µM (inactive)

Question: And the GI50 (SK-MEL-5)?
Answer: > 100 µM (inactive)

Question: And the GI50 (LOX IMVI)?
Answer: > 100 µM (inactive)

Question: And the GI50 (SW-620)?
Answer: > 100 µM (inactive)

Question: And the GI50 (K562)?
Answer: > 100 µM (inactive)

Question: What about the GI50 (IGROV-1) of the same molecule?
Answer: > 100 µM (inactive)

Question: And the GI50 (MDA-MB-435)?
Answer: > 100 µM (inactive)

Question: What does the source list for CC(=O)OCC1OC(n2c(C)c(C(C)=O)c(-c3ccco3)c(C#N)c2=S)C(OC(C)=O)C(OC(C)=O)C1OC(C)=O (configuration not stated)?
Answer: GI50 (T47D): > 100 µM (inactive); GI50 (NCI/ADR-RES): > 100 µM (inactive); GI50 (786-0): > 100 µM (inactive); GI50 (OVCAR-5): > 100 µM (inactive); GI50 (UACC-257): > 100 µM (inactive); GI50 (EKVX): > 100 µM (inactive); GI50 (CCRF-CEM): > 100 µM (inactive) and 53.2 µM (inactive); GI50 (TK-10): > 100 µM (inactive); GI50 (A549): > 100 µM (inactive); GI50 (OVCAR-3): > 100 µM (inactive); GI50 (MOLT-4): 60 µM (inactive); GI50 (HCC 2998): > 100 µM (inactive); GI50 (UO-31): < 0.01 µM (active); GI50 (SF-295): > 100 µM (inactive); GI50 (UACC-62): > 100 µM (inactive); GI50 (Malme-3M): > 100 µM (inactive); GI50 (PC-3): > 100 µM (inactive); GI50 (SF-539): > 100 µM (inactive); GI50 (HOP-62): > 100 µM (inactive); GI50 (MDA-MB-231): > 100 µM (inactive); GI50 (HT-29): > 100 µM (inactive); GI50 (U-251): > 100 µM (inactive); GI50 (NCI-H23): > 100 µM (inactive); GI50 (MDA-N): > 100 µM (inactive); GI50 (MCF7): > 100 µM (inactive); GI50 (SK-MEL-28): > 100 µM (inactive); GI50 (HOP-92): 15.6 µM (inactive); GI50 (NCI-H522): > 100 µM (inactive); GI50 (OVCAR-8): > 100 µM (inactive); GI50 (NCI-H226): > 100 µM (inactive); GI50 (KM12): > 100 µM (inactive); GI50 (HL-60): > 100 µM (inactive); GI50 (HCT-15): > 100 µM; GI50 (HCT-116): > 100 µM (inactive); GI50 (A498): 85.1 µM (inactive); GI50 (SF-268): > 100 µM (inactive); GI50 (ACHN): > 100 µM (inactive); GI50 (DU-145): > 100 µM (inactive); GI50 (NCI-H460): > 100 µM (inactive); GI50 (SN12C): > 100 µM (inactive); GI50 (COLO 205): > 100 µM (inactive); GI50 (M14): > 100 µM (inactive); GI50 (RXF 393): > 100 µM (inactive); GI50 (SK-OV-3): > 100 µM (inactive); GI50 (SR): > 100 µM (inactive); GI50 (SK-MEL-5): 78.5 µM (inactive); GI50 (LOX IMVI): 64.3 µM (inactive); GI50 (SNB-19): > 100 µM (inactive); GI50 (SW-620): > 100 µM (inactive); GI50 (K562): > 100 µM (inactive) and 51.1 µM (inactive); GI50 (MDA-MB-435): > 100 µM (inactive)
